Data: PubChem BioAssay (NCI)
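Growth conditions: 96-well plates. Treatment: test compound, 48 hours, 5 concentrations. Analysis: linear interpolation between bracketing concentrations; unreached endpoints set to highest concentration. Here, GI50 denotes the concentration required for 50% inhibition of growth. Definition used: TGI = concentration required for complete inhibition of growth.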

Key:
Experiment in all cases: NCI tumour cell line growth inhibition, 48 h
M14 melanoma = tested on: M14 melanoma
OVCAR-8 ovarian = tested on: OVCAR-8 ovarian
HT29 colon = tested on: HT29 colon
MOLT-4 leukemia = tested on: MOLT-4 leukemia
UO-31 renal = tested on: UO-31 renal
OVCAR-3 ovarian = tested on: OVCAR-3 ovarian
SK-MEL-2 melanoma = tested on: SK-MEL-2 melanoma
NCI-H522 lung = tested on: NCI-H522 lung
OVCAR-4 ovarian = tested on: OVCAR-4 ovarian
SR leukemia = tested on: SR leukemia
NCI/ADR-RES ovarian = tested on: NCI/ADR-RES ovarian
HOP-62 NSCLC = tested on: HOP-62 NSCLC
A549 NSCLC = tested on: A549 NSCLC
DU-145 prostate = tested on: DU-145 prostate
TK-10 renal = tested on: TK-10 renal
EKVX NSCLC = tested on: EKVX NSCLC
RXF 393 renal = tested on: RXF 393 renal
LOX IMVI melanoma = tested on: LOX IMVI melanoma
NCI-H23 lung = tested on: NCI-H23 lung
NCI-H460 lung = tested on: NCI-H460 lung
COLO 205 colon = tested on: COLO 205 colon
MCF7 breast = tested on: MCF7 breast
ACHN renal = tested on: ACHN renal
SK-OV-3 ovarian = tested on: SK-OV-3 ovarian
NCI-H226 lung = tested on: NCI-H226 lung
KM12 colon = tested on: KM12 colon
SNB-19 CNS = tested on: SNB-19 CNS
HCT-15 colon = tested on: HCT-15 colon
UACC-62 melanoma = tested on: UACC-62 melanoma
HL-60(TB) leukemia = tested on: HL-60(TB) leukemia
SN12C renal = tested on: SN12C renal
HCC-2998 colon = tested on: HCC-2998 colon
SK-MEL-5 melanoma = tested on: SK-MEL-5 melanoma
K-562 leukemia = tested on: K-562 leukemia
IGROV1 ovarian = tested on: IGROV1 ovarian
786-0 renal = tested on: 786-0 renal
PC-3 prostate = tested on: PC-3 prostate
UACC-257 melanoma = tested on: UACC-257 melanoma
SF-295 CNS = tested on: SF-295 CNS
T-47D breast = tested on: T-47D breast
HOP-92 NSCLC = tested on: HOP-92 NSCLC
BT-549 breast = tested on: BT-549 breast
SK-MEL-28 melanoma = tested on: SK-MEL-28 melanoma
CAKI-1 renal = tested on: CAKI-1 renal
SF-539 CNS = tested on: SF-539 CNS
A498 renal = tested on: A498 renal
RPMI-8226 leukemia = tested on: RPMI-8226 leukemia
MDA-MB-435 = tested on: MDA-MB-435
SW-620 colon = tested on: SW-620 colon
MALME-3M melanoma = tested on: MALME-3M melanoma
U251 CNS = tested on: U251 CNS
MDA-MB-231 breast = tested on: MDA-MB-231 breast
HS 578T breast = tested on: HS 578T breast
OVCAR-5 ovarian = tested on: OVCAR-5 ovarian
SF-268 CNS = tested on: SF-268 CNS

`CN1CCN(Cc2ccc(NC(=O)c3ccc(C#Cc4c(N)ncc5ccc(F)cc45)cc3)cc2C(F)(F)F)CC1` showed a GI50 (M14 melanoma) of 919 nM, a TGI (M14 melanoma) of 1710 nM and a GI50 (OVCAR-8 ovarian) of 955 nM. For the same compound, the TGI (OVCAR-8 ovarian) was 1810 nM, the GI50 (HT29 colon) was 876 nM and the TGI (HT29 colon) was 1860 nM. The GI50 (MOLT-4 leukemia) was 799 nM, the TGI (MOLT-4 leukemia) was 1740 nM and the GI50 (UO-31 renal) was 967 nM. It also gave a TGI (UO-31 renal) of 2260 nM, a GI50 (OVCAR-3 ovarian) of 1400 nM and a TGI (OVCAR-3 ovarian) of 3680 nM. It also gave a GI50 (SK-MEL-2 melanoma) of 1080 nM, a TGI (SK-MEL-2 melanoma) of 2040 nM and a GI50 (NCI-H522 lung) of 860 nM. The TGI (NCI-H522 lung) was 1590 nM, the GI50 (OVCAR-4 ovarian) was 1480 nM and the TGI (OVCAR-4 ovarian) was 5830 nM. For the same compound, the GI50 (SR leukemia) was 897 nM, the TGI (SR leukemia) was 2320 nM and the GI50 (NCI/ADR-RES ovarian) was 1080 nM. For the same compound, the TGI (NCI/ADR-RES ovarian) was 2320 nM, the GI50 (HOP-62 NSCLC) was 883 nM and the TGI (HOP-62 NSCLC) was 1590 nM. The GI50 (A549 NSCLC) was 1050 nM, the TGI (A549 NSCLC) was 2190 nM and the GI50 (DU-145 prostate) was 968 nM. The TGI (DU-145 prostate) was 1770 nM, the GI50 (TK-10 renal) was 977 nM and the TGI (TK-10 renal) was 1790 nM. The GI50 (EKVX NSCLC) was 940 nM, the TGI (EKVX NSCLC) was 1850 nM and the GI50 (RXF 393 renal) was 835 nM. The TGI (RXF 393 renal) was 1600 nM, the GI50 (LOX IMVI melanoma) was 929 nM and the TGI (LOX IMVI melanoma) was 1690 nM. It also gave a GI50 (NCI-H23 lung) of 968 nM, a TGI (NCI-H23 lung) of 1890 nM and a GI50 (NCI-H460 lung) of 1060 nM. It also gave a TGI (NCI-H460 lung) of 2020 nM, a GI50 (COLO 205 colon) of 901 nM and a TGI (COLO 205 colon) of 1640 nM. For the same compound, the GI50 (MCF7 breast) was 837 nM, the TGI (MCF7 breast) was 1590 nM and the GI50 (ACHN renal) was 970 nM. For the same compound, the TGI (ACHN renal) was 1710 nM, the GI50 (SK-OV-3 ovarian) was 2200 nM and the TGI (SK-OV-3 ovarian) was 7630 nM. It also gave a GI50 (NCI-H226 lung) of 1070 nM, a TGI (NCI-H226 lung) of 2600 nM and a GI50 (KM12 colon) of 733 nM. For the same compound, the TGI (KM12 colon) was 1520 nM, the GI50 (SNB-19 CNS) was 1090 nM and the TGI (SNB-19 CNS) was 1910 nM. The GI50 (HCT-15 colon) was 892 nM, the TGI (HCT-15 colon) was 1740 nM and the GI50 (UACC-62 melanoma) was 1000 nM. The TGI (UACC-62 melanoma) was 1840 nM, the GI50 (HL-60(TB) leukemia) was 935 nM and the TGI (HL-60(TB) leukemia) was 2620 nM. The GI50 (SN12C renal) was 913 nM, the TGI (SN12C renal) was 1780 nM and the GI50 (HCC-2998 colon) was 870 nM. It also gave a TGI (HCC-2998 colon) of 1620 nM, a GI50 (SK-MEL-5 melanoma) of 871 nM and a TGI (SK-MEL-5 melanoma) of 1580 nM. For the same compound, the GI50 (K-562 leukemia) was 677 nM, the TGI (K-562 leukemia) was 1870 nM and the GI50 (IGROV1 ovarian) was 1130 nM. The TGI (IGROV1 ovarian) was 2560 nM, the GI50 (786-0 renal) was 924 nM and the TGI (786-0 renal) was 1730 nM. For the same compound, the GI50 (PC-3 prostate) was 834 nM, the TGI (PC-3 prostate) was 1610 nM and the GI50 (UACC-257 melanoma) was 1020 nM. The TGI (UACC-257 melanoma) was 1910 nM, the GI50 (SF-295 CNS) was 1040 nM and the TGI (SF-295 CNS) was 2040 nM. It also gave a GI50 (T-47D breast) of 878 nM, a TGI (T-47D breast) of 1850 nM and a GI50 (HOP-92 NSCLC) of 705 nM. It also gave a TGI (HOP-92 NSCLC) of 1450 nM, a GI50 (BT-549 breast) of 3190 nM and a TGI (BT-549 breast) of 9680 nM. The GI50 (SK-MEL-28 melanoma) was 1010 nM, the TGI (SK-MEL-28 melanoma) was 1740 nM and the GI50 (CAKI-1 renal) was 1970 nM. It also gave a TGI (CAKI-1 renal) of 7550 nM, a TGI (SF-539 CNS) of 1780 nM and a GI50 (A498 renal) of 1790 nM. The TGI (A498 renal) was 9710 nM, the GI50 (RPMI-8226 leukemia) was 1080 nM and the TGI (RPMI-8226 leukemia) was 2480 nM. For the same compound, the GI50 (MDA-MB-435) was 874 nM, the TGI (MDA-MB-435) was 1590 nM and the GI50 (SW-620 colon) was 972 nM. For the same compound, the TGI (SW-620 colon) was 1870 nM, the GI50 (MALME-3M melanoma) was 945 nM and the TGI (MALME-3M melanoma) was 1800 nM. The GI50 (U251 CNS) was 851 nM, the TGI (U251 CNS) was 1590 nM and the GI50 (MDA-MB-231 breast) was 1140 nM. For the same compound, the TGI (MDA-MB-231 breast) was 2040 nM, the GI50 (HS 578T breast) was 1050 nM and the TGI (HS 578T breast) was 3650 nM. It also gave a GI50 (OVCAR-5 ovarian) of 993 nM, a TGI (OVCAR-5 ovarian) of 1850 nM and a GI50 (SF-268 CNS) of 948 nM. The TGI (SF-268 CNS) was 2140 nM.
